Assay results as given in patent US12161630B2, “Methods to control infection using new generation small molecule growth inhibitors” (priority 2017, dated 2024).
≈ marks a conversion by molar mass, not a printed value.

What was measured:
[1] = tested on: Salmonella Braenderup; experiment: MIC and MBC dose-response, serotype Braenderup; assay type: cell-based, Salmonella enterica; settings: MIC identical to MBC
[2] = tested on: Salmonella Heidelberg; experiment: MIC and MBC dose-response, serotype Heidelberg; assay type: cell-based, Salmonella enterica; settings: MIC identical to MBC
Protocol: (§1) An overnight Salmonella suspension was normalized at 0.05 OD600 (approximately 3.5×10^7 CFU/ml) with an adjusted M9 minimal broth medium (12.7 mM Na2HPO4 7H2O; 22 mM KH2PO4; 18.7 mM NH4Cl; 2 mM MgSO4; 0.1 mM CaCl2; 0.4% glucose; 0.05% casamino acids). 100 μL of the suspension plus 2 μl of SMs (200 μM) were transferred into each well of a sterile, non-treated, flat bottom 96-well plate. Bacteria alone (negative control, NC), 2% DMSO plus bacteria (DMSO control), 20 μg/ml chloramphenicol or 50 μg/ml kanamycin plus bacteria (positive controls, PC), and M9 medium only were used as control. Plates were incubated in a Sunrise™ Tecan kinetic microplate reader for 12 hrs at 37° C. and the optical density (OD) was measure at 600 nm as described above. Percentage of inhibition=(OD600 SM−OD600 NC)/(OD600 NC)×100. […] Cultures from wells showing no turbidimetric increase were transferred onto a XLT4 agar plate. Plates were incubated at 37° C. for 36 hrs.
(§2) Screens were performed as described in the primary screen. The lowest SM concentration with a static effect was considered as the minimal inhibitory concentration (MIC) and the lowest SM concentration with a cidal effect was considered as the minimal bactericidal concentration (MBC).

[3] = tested on: Salmonella Anatum; experiment: MIC and MBC dose-response, serotype Anatum; assay type: cell-based, Salmonella enterica; settings: MIC identical to MBC
Protocol: as §1, §2

[4] = tested on: chicken cecal microbiota; experiment: Cecal microbiota 16S rRNA sequencing of SM-treated infected chickens; assay type: in vivo, broiler chickens; settings: compared to DMSO group (P<0.01)
Protocol: DNA extraction and sequencing: Microbiota diversity and abundance were investigated using the second cecum directly stored in −80° C. Genomic DNA was extracted using the PureLink Microbiome DNA Purification Kit (Life Technologies, Invitrogen Corp.), combined with RNAse treatment (10 units/hour). About 0.15 g to 0.20 g of cecum content was processed according to manufacturer's instructions. After quality control with electrophoresis and nanodrop, extracted DNA samples were subjected for 16S rRNA V4-V5 variable region sequencing. As a first step of targeted sequencing, amplicon libraries were prepared by using Phusion® High-Fidelity PCR Kit (New England Biolabs Inc, Ipswich, MA) in a 96-well plate. 25 μL of PCR reactions were prepared using 5 μl (5×) of PCR buffer, 4 μl (5 ng/μl) of DNA sample, and 2.5 μl (2 μM) primer, 0.5 μl (10 mM) dNTPs, 0.2 μl of enzyme, and nuclease free water to final volume. The barcoded primers targeted the V4-V5 variable region. […] Sample concentrations were measured, and equal concentration of all samples were pooled into one flow cell and sequenced using Illumina MiSeq 300-base, paired-end kit at the Molecular and Cellular Imaging Center (Ohio Agricultural Research & Development Center, Wooster, OH).
Bioinformatics analyses: After sequencing, a quality control of the raw reads was performed using FastQC (Babraham Bioinformatics, Cambridge, USA). […] Details concerning the parameters used are described in mcbl.readthedocs.io/en/latest/mcbl-tutorials-AD-clean.html. […] Then samples were processed using Quantitative Insights Into Microbial Ecology (QIIME) software version 1.9 (16). Operational Taxonomy Units (OTUs) were determined by clustering reads against Greengenes 16S reference dataset (2013-08 release) at a 97% identity using open picking reference OTU (pick_open_reference_otus.py) method using default parameters, except setting minimum OTU size to 10. […]

[5] = tested on: S. typhimurium WT internalized in Caco-2 cells; experiment: S. typhimurium intracellular survival in infected Caco-2 cells; assay type: cell-based; settings: S. Typhimurium-infected Caco-2 cells, 24 hrs treatment
Protocol: Effect of the four SMs on S. typhimurium intracellular survival in cells lines: The ability of four SMs to clear S. typhimurium WT […] was evaluated using three cell lines (Caco-2 cells, HD11, and THP-1 cells). The Salmonella intracellular survival as assessed as described (13). A multiplicity of infection “MOI” of 10 was used. Infected cells were treated with 1 μl of SMs (final concentration ranged between 100 μM and 6.25 μM) at 37° C. for 24 hrs in humidified, 5% CO2 incubator. Following incubation, cells were washed once with 150 μl of 1×PBS, lysed with 0.1% Triton-100X, serial ten-fold diluted in 1×PBS, and plated on agar plate. Plates were incubated at 37° C. for 24 hrs to determine the intracellular survival. Cells not infected and not treated, and cells infected and treated with 2% DMSO were used as controls.

[6] = tested on: biofilm-protected S. typhimurium WT; experiment: MBEC-HTP assay on biofilm-protected S. typhimurium; assay type: cell-based, Salmonella enterica subsp. enterica serovar Typhimurium LT2; settings: 18 hrs incubation, 0.2×MBC to 4×MBC
Protocol: Antimicrobial susceptibility testing on biofilm-protected S. typhimurium using the MBEC™-HTP assay: The antimicrobial efficacy of the four SMs was tested once the S. Typhimurium WT was protected by the […] biofilm matrix. The experiment was performed as described by the manufacturer (innovotech.ca/MBEC_HTPInstructions_Rev1.pdf). Briefly, 150 μl of an overnight suspension of S. typhimurium WT normalized at 0.05 OD600 in LB medium was transferred into each well of a sterile, non-treated, flat bottom 96-wells plate. The plate was covered using the lid containing the pegs (innovotech; 19111), sealed with parafilm, and incubated for 36 hrs at 37° C. […] The plate was incubated for 18 hrs at 37° C., 110 rpm in the dark. After incubation, the lid was transferred into a new 96-wells plate containing 200 μl of sterile water and sonicated for 60 min at room temperature (Aquasonic model 50HT, VWR). Then the supernatant was ten-fold serial diluted, plated in agar plate, and incubated at 37° C. for 36 hrs. The lowest SM concentration giving a complete clearance was considered as the minimum biofilm eradication concentration (MBEC).

| Compound | MIC/MBC [1] [µM] | MIC/MBC [2] [µM] | MIC/MBC [3] [µM] | abundance of Salmonella OTUs in ceca [4] | MBC (μm), Caco-2 cells [5] [µM] | concentration killing biofilm-protected Salmonella [6] [×MBC] |
| --- | --- | --- | --- | --- | --- | --- |
| CC1CCC(C(C)C)C(OC(=O)Cn2c[n+](CC(=O)OC3CC(C)CCC3C(C)C)c3ccccc32)C1.[Cl-] (stereo not drawn) [SM1, 1,3-bis{2-[(2-isopropyl-5-methylcyclohexyl)oxy]-2-oxoethyl}-1H-3,1-benzimidazol-3-ium chloride] | 100 | 100 | 100 | reduction | 25 | – |
| CCCCCCCCCCCCCCCC[n+]1ccn(CC#N)c1.[Cl-] [SM3, 1-(cyanomethyl)-3-hexadecyl-1H-imidazol-3-ium chloride] | 25 | 50 | 25 | – | 50 | – |
| CCCCCCCCCCCCCCCCn1c[n+](C)c2ccccc21.[Br-] [SM4, 1-hexadecyl-3-methyl-1H-3,1-benzimidazol-3-ium bromide] | 10 | 25 | 10 | reduced abundance | 25 | 0.6 |
| CCOc1cc(/C=N/N=C(N)N)ccc1OCc1ccc(Cl)cc1 [SM5, N″-{4-[(4-chlorobenzyl)oxy]-3-ethoxybenzylidene}carbonohydrazonic diamide] | 50 (≈ 17.3 µg/mL) | 50 (≈ 17.3 µg/mL) | 50 (≈ 17.3 µg/mL) | reduced abundance | 12.5 (≈ 4.34 µg/mL) | 0.4 |
